Experimental findings from a melting point compilation (Tetko et al.; mined from patent text by program, amines drawn as free bases though some values may be those of a salt) are described below.

`CCCCCCCNC(=O)Nc1ccc(N2CCCC2)cc1C(=O)NCC1CCN(C(c2ccccc2)c2ccccc2)CC1`: the melting point (in general, the temperature, or range, at which the solid turns liquid) was 182 to 184 °C.
Under `CN(C)CC/C=C1/c2ccccc2CCc2ccc(Br)cc21` stands 73 to 75 °C; under `COc1cc(OC(=O)c2cccnc2)c2c(=O)c(OC)c(-c3ccc(OC(=O)c4cccnc4)c(OC)c3)oc2c1`, 212 to 214 °C.
To `COC(=O)c1c(C)sc(C)c1N` belongs 75 to 77 °C; to `COc1cc(C2C3=C(COC3=O)Nc3ccc4cc(C)[nH]c4c32)cc(OC)c1OC` (configuration not stated), 280 to 281 °C.
`CC1CCCN1CCCN1C(=C(C#N)C#N)N(CCCN2CCCC2C)c2ccccc21` (configuration not stated): the melting point lay within 83 to 85 °C.
Regarding `CCOC(=O)c1cnn2c1nc(NC(C)CC)c1cnc3c(cnn3CC)c12` (configuration not stated), the melting point fell in the range of 94 to 97 °C.
Under `O=c1oc(=O)n(Cc2ccccc2)c2ncccc12` stands 168 °C; under `O=C(Nc1ccccc1)c1cc(Oc2ccc3c(c2)CCN3C(=O)Nc2cccc(C(F)(F)F)c2)ncn1`, 227 to 229 °C; under `C#C[C@]1(C)CCc2c(C)c(OC)c(C)c(C)c2O1`, 94 to 97 °C.
In turn, `COc1cc(C(O)CN2CCN(C(c3ccccc3)c3ccccc3)CC2)cc(OC)c1OC` (configuration not stated) had a melting point of 173 °C.
Under `CCCC(=O)c1c[nH]c2c(OC)nccc2c1=O` stands 206 to 207 °C; under `CCC#CCOc1cc2c(cc1C=O)C(C)(C)CCC2(C)C`, 90 to 91 °C; under `COc1ccc(-c2cc3cc(OC)cc(CC#N)c3o2)cc1`, 149 to 150 °C.
Under `Cc1cccc2c1C1=C(CC2)NC(=O)CC1` stands 168 to 169 °C; under `CCOC(=O)c1ccc(C#CCO)cc1`, 58 to 60 °C; under `COC(=O)CC/C(C)=C/Cc1c(N)c2c(c(C)c1OC)COC2=O`, 91 to 93 °C.
To `COC(=O)c1ccc(C(=O)Nc2cccc(Nc3nc(-c4cccnc4)cs3)c2)cc1` belongs 237 °C.
Turning to `Cc1cc(-n2ccc(OCc3ccccc3)cc2=O)sc1C(=O)NCc1ccc(F)cc1`, the melting point was in the range of 175 to 177 °C.
`Nc1cccc(CC2COc3ccc(OCc4ccc5ccc(Cl)cc5n4)cc3C2)c1` (single isomer, unassigned; (+)): the melting point lay within 128 to 130 °C.
To `COC(=O)CNC(=O)n1ccc(O)cc1=O` belongs 124 to 126 °C; to `Cc1cc(C2=NN(C(=S)Cl)[C@H](C)Cc3cc4c(cc32)OCO4)cc(C)c1[N+](=O)[O-]`, 216 °C; to `Cc1ccc(-c2c(C(=O)NCc3ccccc3)oc(=O)c3ncccc23)cc1`, 208 to 209 °C.
Under `Cc1ccc(-c2ccc3c(c2)C=C(C(=O)Nc2ccc(CNCC4CCCCC4)cc2)CCO3)cc1` stands 154 to 155 °C; under `N#CN=C(Oc1ccccc1)N1CCCCC1`, 85.7 °C.
Under `c1ccc(-c2ccc3sc(-c4nc(COc5ccc(CCCn6ccnc6)cc5)co4)cc3c2)cc1` stands 168 to 169 °C; under `Cc1nnc2cccc(-c3ccccn3)n12`, 168 to 170 °C; under `CC(C)OC(=O)C=Cc1cc([N+](=O)[O-])ccc1Cl`, 74 to 75 °C.
The compound `CC(=NNc1ccc(C2=NNC(=O)CC2)cc1)c1ccnnc1` showed a melting point of 258 to 260 °C.
Under `COc1ccc2cc(C3CCN(C[C@H](O)COc4cccc5oc(-c6nnc(C)o6)cc45)CC3)ccc2c1` stands 156 to 158 °C.
To `CC(C)(O)c1ccc(CNC(=O)c2cccnc2Oc2ccc3ncsc3c2)cc1` belongs 195 to 197 °C; to `O=S1(=O)CCCS(=O)(=O)C1(CCCCl)c1ccccc1`, 182 °C; to `CC(C)(C)c1cc(SC2CC(=O)N(CCCCCCN3C(=O)CC(Sc4cc(C(C)(C)C)c(O)c(C(C)(C)C)c4)C3=O)C2=O)cc(C(C)(C)C)c1O` (configuration not stated), 69 to 72 °C.
To `CC(CCCc1ccccc1)c1cc2c(cc1O)C1C(=O)CCCC1C(C)(C)O2` (configuration not stated) belongs 108 to 115 °C.
Compound `CN(C)CCOc1ccc(N2C(=O)C=C3CCCCC32)cc1` (configuration not stated) registered a melting point of 90 °C.
In the case of `Cc1cc(=O)c(OCc2ccccc2)c(C(=O)O)o1`, the melting point lay in the range of 173 to 175 °C.
Under `O=C(CSc1n[nH]c(-c2ccccc2)n1)C12CC3CC(CC(C3)C1)C2` stands 187 to 188 °C; under `COCCc1nc2cnc3cc(Br)cnc3c2n1CC(C)(C)O`, 125 °C.
Under `COc1ccc(-n2c(=O)c(-c3ccccc3)nc3ccccc32)cc1` stands 199 to 202 °C; under `COc1ccc2[nH]cc(S(=O)(=O)c3ccccc3)c2c1`, 151 to 155 °C.
To `CC(C(=O)O)(c1ccccc1)N1CCC(c2noc3cc(F)ccc23)CC1` (configuration not stated) belongs 194 to 200 °C.
As for `CC(C)(C)OC(=O)Nc1ccc(Cl)nc1`, the melting point fell in the range of 126 to 127 °C.
Under `CN[C@@H](CC(C)C)C(=O)N[C@@H](Cc1ccccc1)C(N)=O` stands 136 to 138 °C.
Under `COc1cc(N)c(Cl)cc1C(=O)NCCNCc1ccc(CN(C)C)o1` stands 91 to 93 °C.
Under `Cc1ccc2oc(-c3ccccc3-c3nnnn3C(c3ccccc3)(c3ccccc3)c3ccccc3)c(Br)c2c1` stands 199 to 200 °C; under `O=C(NCc1ccccc1-c1ccccc1C(=O)NCCc1ccccn1)OCc1ccccc1`, 140 °C.
Take `CC1=NN(c2ccc(Cl)cc2)C(c2ccc(N)c(C)c2)C1` (configuration not stated): the melting point is 180 to 184 °C.
To `CCCCC(=O)OCC(=O)C12OCOC1CC1C3CCC4=CC(=O)C=CC4(C)C3C(O)CC12C` (configuration not stated) belongs 121 to 122 °C.
The compound `COc1ccccc1NC(=O)Oc1ccc2c(c1)N(Cc1ccccc1)CCC2` yielded a melting point of 125 °C.
Consider `CS(=O)(=O)OCCC1c2ccccc2COc2ccccc21` (configuration not stated), for which the melting point is 64 to 66 °C.
To `Nc1ccc(OCCCl)cc1` belongs 91 to 92 °C; to `C=C(C)[C@@H]1CC[C@](C)(O)[C@@H](n2ccnc2)C1`, 126 to 128 °C; to `Cc1c(NC(=O)c2ccc(OC[C@@H]3CCCO3)cc2)ccc2cc(CNC[C@H]3CCCO3)cnc12`, 92 to 94 °C.
In turn, `CN(C)C1CCc2oc3ccc(NC(=O)c4ccncc4)cc3c2C1` (configuration not stated) displayed a melting point of 146 to 147 °C.
Under `CC(=O)Nc1nc(-c2ccco2)c(C(=O)c2ccccn2)s1` stands 216 to 217 °C; under `CCNc1cccc2c1C(=O)c1cccc(NCC)c1C2=O`, 193 to 195 °C; under `CC(C)(C)OC(=O)N1CCN(c2nsnc2Cl)CC1`, 83 to 86 °C.
To `COc1cc(OC)nc(NC(=O)NS(=O)(=O)c2ncccc2C(O)CF)n1` (configuration not stated) belongs 119 to 120 °C; to `CN(C(=O)Nc1ccccc1C=Cc1cc(C(C)(C)C)c(O)c(C(C)(C)C)c1)C1CCN(Cc2ccc(F)cc2)CC1`, 174 to 175 °C.
To `CCOC(=O)c1cc(NCc2ccccc2)c(Nc2ccc(C)cc2)c(S(N)(=O)=O)c1` belongs 159 to 160 °C.
As for `N=C(NO)C1C=Cc2ccccc2N1C(=O)c1ccccc1` (configuration not stated), the melting point lay within 176 to 178 °C.
Turning to `CC(=O)Nc1ccc(C2=NNC(=O)NC2C)cc1` (configuration not stated), the melting point was 272 to 273 °C.
